Experimental data: PubChem BioAssay (NCI)
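Five concentrations, 48 hours, 96-well plates. At the GI50, growth is halved. The concentration for full growth arrest is given as TGI.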

How the values were obtained:
Experiment in all cases: inhibition of tumour cell growth, NCI panel, 48 h
[1] = test system: 786-0 renal
[2] = test system: A549 NSCLC
[3] = test system: ACHN renal
[4] = test system: BT-549 breast
[5] = test system: CAKI-1 renal
[6] = test system: CCRF-CEM leukemia
[7] = test system: COLO 205 colon
[8] = test system: DU-145 prostate
[9] = test system: EKVX NSCLC
[10] = test system: HCC-2998 colon
[11] = test system: HCT-116 colon
[12] = test system: HCT-15 colon
[13] = test system: HL-60(TB) leukemia
[14] = test system: HOP-62 NSCLC
[15] = test system: HOP-92 NSCLC
[16] = test system: HS 578T breast
[17] = test system: HT29 colon
[18] = test system: IGROV1 ovarian
[19] = test system: K-562 leukemia
[20] = test system: KM12 colon
[21] = test system: LOX IMVI melanoma
[22] = test system: M14 melanoma
[23] = test system: MALME-3M melanoma
[24] = test system: MCF7 breast
[25] = test system: MDA-MB-231 breast
[26] = test system: MDA-MB-435
[27] = test system: MOLT-4 leukemia
[28] = test system: NCI-H226 lung
[29] = test system: NCI-H23 lung
[30] = test system: NCI-H460 lung
[31] = test system: NCI-H522 lung
[32] = test system: NCI/ADR-RES ovarian
[33] = test system: OVCAR-3 ovarian
[34] = test system: OVCAR-4 ovarian
[35] = test system: OVCAR-5 ovarian
[36] = test system: OVCAR-8 ovarian
[37] = test system: PC-3 prostate
[38] = test system: RPMI-8226 leukemia
[39] = test system: RXF 393 renal
[40] = test system: SF-268 CNS
[41] = test system: SF-295 CNS
[42] = test system: SF-539 CNS
[43] = test system: SK-MEL-2 melanoma
[44] = test system: SK-MEL-28 melanoma
[45] = test system: SK-MEL-5 melanoma
[46] = test system: SK-OV-3 ovarian
[47] = test system: SN12C renal
[48] = test system: SNB-19 CNS
[49] = test system: SNB-75 CNS
[50] = test system: SR leukemia
[51] = test system: SW-620 colon
[52] = test system: T-47D breast
[53] = test system: TK-10 renal
[54] = test system: U251 CNS
[55] = test system: UACC-257 melanoma
[56] = test system: UACC-62 melanoma
[57] = test system: UO-31 renal
[58] = test system: A498 renal

CCN(CCO)CCNc1ccc(C)c2sc3cc(Cl)ccc3c(=O)c12
GI50 [1]: 1.41 µM
TGI [1]: 2.84 µM
GI50 [2]: 1.73 µM
TGI [2]: 3.28 µM
GI50 [3]: 1.61 µM
TGI [3]: 3.19 µM
GI50 [4]: 3.78 µM
TGI [4]: 14 µM
GI50 [5]: 1.72 µM
TGI [5]: 4.03 µM
GI50 [6]: 1.52 µM
TGI [6]: 3.46 µM
GI50 [7]: 1.14 µM
TGI [7]: 2.62 µM
GI50 [8]: 1.57 µM
TGI [8]: 2.94 µM
GI50 [9]: 1.62 µM
TGI [9]: 3.18 µM
GI50 [10]: 1.51 µM
TGI [10]: 3.14 µM
GI50 [11]: 1.34 µM
TGI [11]: 2.72 µM
GI50 [12]: 0.538 µM
TGI [12]: 1.85 µM
GI50 [13]: 1.56 µM
TGI [13]: 3.55 µM
GI50 [14]: 1.5 µM
TGI [14]: 2.95 µM
GI50 [15]: 1.56 µM
TGI [15]: 8.94 µM
GI50 [16]: 1.76 µM
TGI [16]: 4.46 µM
GI50 [17]: 1.28 µM
TGI [17]: 2.62 µM
GI50 [18]: 1.64 µM
TGI [18]: 3.39 µM
GI50 [19]: 0.32 µM
TGI [19]: 1.42 µM
GI50 [20]: 1.67 µM
TGI [20]: 3.36 µM
GI50 [21]: 1.59 µM
TGI [21]: 3.06 µM
GI50 [22]: 1.64 µM
TGI [22]: 3.23 µM
GI50 [23]: 1.86 µM
TGI [23]: 3.51 µM
GI50 [24]: 1.21 µM
TGI [24]: 2.78 µM
GI50 [25]: 0.783 µM
TGI [25]: 2.24 µM
GI50 [26]: 0.891 µM
TGI [26]: 2.26 µM
GI50 [27]: 1.27 µM
TGI [27]: 3.01 µM
GI50 [28]: 1.39 µM
TGI [28]: 3.12 µM
GI50 [29]: 1.63 µM
TGI [29]: 3.45 µM
GI50 [30]: 1.41 µM
TGI [30]: 3.03 µM
GI50 [31]: 1.56 µM
TGI [31]: 3.21 µM
GI50 [32]: 1.49 µM
TGI [32]: 3.11 µM
GI50 [33]: 1.72 µM
TGI [33]: 4.13 µM
GI50 [34]: 2.18 µM
TGI [34]: 5.15 µM
GI50 [35]: 1.59 µM
TGI [35]: 3.3 µM
GI50 [36]: 1.78 µM
TGI [36]: 3.38 µM
GI50 [37]: 1.34 µM
TGI [37]: 2.94 µM
GI50 [38]: 1.86 µM
TGI [38]: 4.6 µM
GI50 [39]: 0.738 µM
TGI [39]: 2.2 µM
GI50 [40]: 1.44 µM
TGI [40]: 3.04 µM
GI50 [41]: 1.61 µM
TGI [41]: 3.19 µM
GI50 [42]: 1.73 µM
TGI [42]: 3.43 µM
GI50 [43]: 1.78 µM
TGI [43]: 3.56 µM
GI50 [44]: 1.64 µM
TGI [44]: 3.23 µM
GI50 [45]: 1.54 µM
TGI [45]: 2.88 µM
GI50 [46]: 1.61 µM
TGI [46]: 3.09 µM
GI50 [47]: 1.47 µM
TGI [47]: 3.11 µM
GI50 [48]: 1.58 µM
TGI [48]: 3.17 µM
GI50 [49]: 1.97 µM
TGI [49]: 5.44 µM
GI50 [50]: 0.751 µM
TGI [50]: 2.78 µM
GI50 [51]: 1.27 µM
TGI [51]: 2.77 µM
GI50 [52]: 1.91 µM
TGI [52]: 3.96 µM
GI50 [53]: 1.8 µM
TGI [53]: 3.31 µM
GI50 [54]: 1.4 µM
TGI [54]: 2.79 µM
GI50 [55]: 1.97 µM
TGI [55]: 3.55 µM
GI50 [56]: 1.73 µM
TGI [56]: 3.31 µM
GI50 [57]: 1.1 µM
TGI [57]: 2.4 µM

Nc1nc(Nc2ccc(OCc3cccc(F)c3)cc2)c2c(n1)[nH]c1ccc(O)cc12
GI50 [58]: 15.7 µM
TGI [58]: 33.1 µM
GI50 [2]: 4.13 µM
TGI [2]: 17.8 µM
GI50 [3]: 3.16 µM
TGI [3]: 12 µM
GI50 [4]: 1.88 µM
TGI [4]: 4.01 µM
GI50 [6]: 3.03 µM
TGI [6]: 9.62 µM
GI50 [7]: 2.42 µM
TGI [7]: 5.98 µM
GI50 [8]: 4.22 µM
TGI [8]: 15.6 µM
GI50 [9]: 8.86 µM
TGI [9]: 29.4 µM
GI50 [10]: 3.46 µM
TGI [10]: 13.6 µM
GI50 [12]: 3.61 µM
TGI [12]: 16.2 µM
GI50 [13]: 2.01 µM
TGI [13]: 4.21 µM
GI50 [15]: 2.37 µM
TGI [15]: 7.98 µM
GI50 [16]: 2.41 µM
TGI [16]: 6.29 µM
GI50 [17]: 2.13 µM
TGI [17]: 4.49 µM
GI50 [18]: 3.75 µM
TGI [18]: 14.7 µM
GI50 [19]: 2.66 µM
TGI [19]: 6.65 µM
GI50 [20]: 3.55 µM
TGI [20]: 11.7 µM
GI50 [22]: 2.12 µM
TGI [22]: 4.77 µM
GI50 [24]: 2.87 µM
TGI [24]: 11.8 µM
GI50 [25]: 2.71 µM
TGI [25]: 7.33 µM
GI50 [26]: 3.68 µM
TGI [26]: 14.1 µM
GI50 [27]: 2.77 µM
TGI [27]: 8.34 µM
GI50 [28]: 24.2 µM
TGI [28]: 54.6 µM
GI50 [29]: 4.12 µM
TGI [29]: 22.2 µM
GI50 [30]: 3.25 µM
TGI [30]: 9.37 µM
GI50 [31]: 1.99 µM
TGI [31]: 4.67 µM
GI50 [32]: 9.46 µM
TGI [32]: 32 µM
GI50 [33]: 1.89 µM
TGI [33]: 3.46 µM
GI50 [34]: 2.18 µM
TGI [34]: 6.04 µM
GI50 [35]: 3.38 µM
TGI [35]: 14.5 µM
GI50 [36]: 3.49 µM
TGI [36]: 13.2 µM
GI50 [37]: 3.71 µM
TGI [37]: 14.7 µM
GI50 [38]: 2.16 µM
TGI [38]: 5.55 µM
GI50 [39]: 1.78 µM
TGI [39]: 3.55 µM
GI50 [40]: 3.1 µM
TGI [40]: 12.2 µM
GI50 [41]: 2.5 µM
TGI [41]: 7.63 µM
GI50 [42]: 1.79 µM
TGI [42]: 3.31 µM
GI50 [43]: 2.61 µM
TGI [43]: 7.71 µM
GI50 [44]: 2.26 µM
TGI [44]: 5.59 µM
GI50 [45]: 4.17 µM
TGI [45]: 15.2 µM
GI50 [46]: 17.1 µM
TGI [46]: 31.3 µM
GI50 [47]: 2.08 µM
TGI [47]: 4.56 µM
GI50 [48]: 4.4 µM
TGI [48]: 21.7 µM
GI50 [49]: 1.53 µM
TGI [49]: 3.01 µM
GI50 [50]: 2.13 µM
TGI [50]: 5.87 µM
GI50 [51]: 2.54 µM
TGI [51]: 6.26 µM
GI50 [52]: 1.79 µM
TGI [52]: 4.5 µM
GI50 [53]: 3.49 µM
TGI [53]: 16.4 µM
GI50 [54]: 2.44 µM
TGI [54]: 6.09 µM
GI50 [55]: 4.81 µM
TGI [55]: 22.2 µM
GI50 [56]: 1.95 µM
TGI [56]: 4.09 µM
GI50 [57]: 1.75 µM
TGI [57]: 4.12 µM
